Laboratory results published in PubChem BioAssay AID504681 (National Center for Advancing Translational Sciences (NCATS), 2011).

Tested on: PBS pH 7.4 stability, LC-MS/MS, 48 h
Test: Inhibitors of Human alpha-Glucosidase: PBS Stability Profiling
Settings: at 20 µM; stronger effect = higher value
Source text: Alpha-glucosidase is responsible for the hydrolysis of terminal, non-reducing 1,4-linked alpha-D-glucose residues, which releases alpha-D-glucose. It is a lysosomal hydrolase that is required for the degradation of a small percentage (1-3%) of cellular glycogen in humans. Deficiency of this enzyme results in glycogen-storage disease type II (GSDII), also referred to as Pompe disease, an autosomal recessive disorder. Structurally normal glycogen is accumulated in the lysosomes and cytoplasm in affected patients, primarily in muscle tissues. Excessive glycogen storage within lysosomes may interrupt normal functioning of other organelles and leads to cellular injury. In turn, this leads to enlargement and dysfunction of the entire organ involved (eg: cardiomyopathy and muscle weakness). The stability of the lead compound in PBS buffer is tested because this parameter has a significant impact on many ADME-concerned properties of drugs, such as uptake, distribution, transport, and eventually bioavailability. NIH Chemical Genomics Center [NCGC] NIH Molecular Libraries Probe Production Centers Network [MLPCN] […]
20uM of compound is incubated in PBS buffer at pH 7.4 at […]; the reference compound is procaine. Compounds are incubated at 37 deg C for the pre-determined time periods and the when aliquots are removed. Samples are analyzed with LC-MS/MS.

SMILES: CC(=O)c1ccc(N2CCN(S(=O)(=O)c3ccc4c(c3)CC(=O)N4)CC2)cc1
- percent remaining: 100%
